{"source": "paper PMC5956890", "about": "(Journal of medicinal chemistry, 2017)", "key": {"PPARγ [1]": {"target": "T1, PPARγ (Homo sapiens, UniProt P37231)", "T1 sequence (P37231 235-505 limits assumed)": "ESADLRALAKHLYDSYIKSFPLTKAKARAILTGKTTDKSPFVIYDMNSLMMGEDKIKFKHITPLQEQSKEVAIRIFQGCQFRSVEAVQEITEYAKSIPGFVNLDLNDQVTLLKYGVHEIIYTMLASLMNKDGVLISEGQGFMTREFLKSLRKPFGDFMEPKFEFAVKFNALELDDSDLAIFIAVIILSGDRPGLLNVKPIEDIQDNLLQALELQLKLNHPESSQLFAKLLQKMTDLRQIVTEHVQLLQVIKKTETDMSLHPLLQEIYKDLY", "test": "TR-FRET competitive binding assay PPARγ", "settings": "concentration-response"}, "PPARδ [2]": {"target": "T2, PPARδ (Homo sapiens, UniProt Q03181)", "T2 sequence (Q03181 211-439 limits assumed)": "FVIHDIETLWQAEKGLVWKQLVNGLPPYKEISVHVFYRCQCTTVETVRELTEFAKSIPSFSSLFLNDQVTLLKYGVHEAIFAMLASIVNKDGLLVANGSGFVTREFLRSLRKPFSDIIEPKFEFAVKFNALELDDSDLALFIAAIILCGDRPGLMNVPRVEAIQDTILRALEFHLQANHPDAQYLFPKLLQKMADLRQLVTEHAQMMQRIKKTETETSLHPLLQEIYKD", "test": "TR-FRET PPARδ coactivator assay", "assay_type": "biochemical", "settings": "compound alone"}, "PPARα": {"target": "T3, PPARα (Homo sapiens, UniProt Q07869)", "T3 sequence (Q07869 200-468 limits assumed)": "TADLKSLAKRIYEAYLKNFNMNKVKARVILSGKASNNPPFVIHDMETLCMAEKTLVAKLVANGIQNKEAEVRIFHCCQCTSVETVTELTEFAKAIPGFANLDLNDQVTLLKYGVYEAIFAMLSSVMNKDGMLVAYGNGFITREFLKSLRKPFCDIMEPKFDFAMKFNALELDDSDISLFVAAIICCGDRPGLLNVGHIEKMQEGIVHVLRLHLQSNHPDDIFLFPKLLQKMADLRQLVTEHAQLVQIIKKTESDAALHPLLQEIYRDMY", "test": "TR-FRET competitive binding assay PPARα", "settings": "up to 20 µM"}, "PPARγ [3]": {"target": "T4, PPARγ (Homo sapiens, UniProt P37231)", "T4 sequence (P37231 1-505)": "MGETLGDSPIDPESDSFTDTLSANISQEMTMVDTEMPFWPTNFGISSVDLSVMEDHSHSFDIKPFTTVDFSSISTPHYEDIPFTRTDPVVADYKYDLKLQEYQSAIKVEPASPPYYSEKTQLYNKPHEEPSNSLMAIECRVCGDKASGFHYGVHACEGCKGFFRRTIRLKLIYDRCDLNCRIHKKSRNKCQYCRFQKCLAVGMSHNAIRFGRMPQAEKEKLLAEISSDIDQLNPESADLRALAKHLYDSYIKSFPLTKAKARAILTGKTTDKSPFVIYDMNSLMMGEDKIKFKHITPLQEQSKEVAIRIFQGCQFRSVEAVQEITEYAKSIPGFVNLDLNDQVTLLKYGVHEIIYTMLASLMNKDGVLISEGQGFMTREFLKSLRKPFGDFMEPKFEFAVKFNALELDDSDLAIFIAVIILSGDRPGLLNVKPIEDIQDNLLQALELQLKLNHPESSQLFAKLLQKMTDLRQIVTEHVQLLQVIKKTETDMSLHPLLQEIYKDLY", "test": "luciferase-reporter PPARγ transactivation assay in CV-1 cells", "assay_type": "cell-based", "settings": "30 µM"}, "PPARδ [4]": {"target": "T5, PPARδ (Homo sapiens, UniProt Q03181)", "T5 sequence (Q03181 1-441)": "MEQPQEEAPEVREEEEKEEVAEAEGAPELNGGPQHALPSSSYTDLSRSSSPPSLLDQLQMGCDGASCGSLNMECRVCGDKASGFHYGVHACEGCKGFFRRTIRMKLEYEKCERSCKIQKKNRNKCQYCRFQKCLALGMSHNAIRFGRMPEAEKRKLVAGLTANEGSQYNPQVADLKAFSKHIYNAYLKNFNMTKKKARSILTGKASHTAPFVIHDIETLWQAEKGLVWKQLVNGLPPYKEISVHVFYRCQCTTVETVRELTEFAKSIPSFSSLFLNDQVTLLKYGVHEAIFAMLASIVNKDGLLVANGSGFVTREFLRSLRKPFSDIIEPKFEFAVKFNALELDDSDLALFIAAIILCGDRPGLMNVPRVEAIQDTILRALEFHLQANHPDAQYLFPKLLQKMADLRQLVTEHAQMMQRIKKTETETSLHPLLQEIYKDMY", "test": "TR-FRET competitive binding assay PPARδ", "settings": "concentration-response"}, "[5]": {"tested_on": "ANGPTL4 and PDK4 gene transcription", "test": "Q-RT-PCR of ANGPTL4 and PDK4 mRNA in hBM-MSCs", "assay_type": "cell-based, human", "settings": "3rd day after induction of adipogenesis"}, "[6]": {"tested_on": "STZ-induced diabetic C57BL/6J mice", "test": "STZ-induced diabetes mouse model", "assay_type": "in vivo", "settings": "oral 20 mg/kg for 5 days, male C57BL/6J"}, "PPARδ [7]": {"target": "T2, PPARδ", "test": "TR-FRET PPARδ corepressor assay", "assay_type": "biochemical", "settings": "SMRT-ID2 peptide"}, "hBM-MSCs": {"tested_on": "hBM-MSCs", "test": "adiponectin production during adipogenesis in hBM-MSCs", "settings": "20 µM"}}, "note": "“Also recorded” adds a separate entry of the source.", "data": [{"molecule": "O[C@@H]1[C@H](O)CS[C@H]1n1cnc2c(NCc3cccc(I)c3)nc(Cl)nc21", "note": "[Compound 3a, (2R,3R,4S)-2-(2-Chloro-6-((3-iodobenzyl)amino)-9H-purin-9-yl)tetrahydrothiophene-3,4-diol]", "values": [{"measurement": "PPARγ binding activity", "setting": "PPARγ [1]", "value": "significant competitive binding activity"}, {"measurement": "recruitment of labeled coactivator peptide to PPARδ", "setting": "PPARδ [2]", "value": "no effect on the recruitment of the labeled coactivator peptide"}, {"measurement": "replacement of labeled PPARα ligand binding", "setting": "PPARα", "value": "≤ 50", "unit": "%"}, {"measurement": "PPARγ transactivation compared to troglitazone", "setting": "PPARγ [3]", "value": "did not achieve maximal PPARγ transactivation activity"}, {"measurement": "PPARδ binding activity", "setting": "PPARδ [4]", "value": "maximal PPARδ binding activity"}, {"measurement": "ANGPTL4 mRNA level", "setting": "[5]", "value": "did not affect ANGPTL4 and PDK4 mRNA levels"}, {"measurement": "PDK4 mRNA level", "setting": "[5]", "value": "did not affect ANGPTL4 and PDK4 mRNA levels"}, {"measurement": "serum lactate levels", "setting": "[6]", "value": "tended to decrease the serum lactate levels"}, {"measurement": "serum triglyceride levels", "setting": "[6]", "value": "downregulated serum triglyceride levels"}, {"measurement": "serum glucose levels", "setting": "[6]; 20 mg/kg", "value": "significantly decreased serum glucose levels; also recorded: dose-dependent"}, {"measurement": "interaction between PPARδ and corepressor peptide", "setting": "PPARδ [7]", "value": "promotion of the interaction between PPARδ and corepressor peptide"}, {"measurement": "rank as promoter of adipogenesis among tested A3 AR agonists and antagonists", "setting": "hBM-MSCs", "value": "most potent promoter of adipogenesis"}]}]}
